This is an account of results in patent publication US10889611B2, “Sialyltransferase inhibitors and uses thereof” (Academia Sinica, priority 2015, dated 2021).

Data set [1] deals with T1, α2,3(O)-sialyltransferase ST3GALI (Rattus norvegicus, UniProt Q6H8N0).
T1 construct: purchased Calbiochem
T1 sequence (Q6H8N0 1-340): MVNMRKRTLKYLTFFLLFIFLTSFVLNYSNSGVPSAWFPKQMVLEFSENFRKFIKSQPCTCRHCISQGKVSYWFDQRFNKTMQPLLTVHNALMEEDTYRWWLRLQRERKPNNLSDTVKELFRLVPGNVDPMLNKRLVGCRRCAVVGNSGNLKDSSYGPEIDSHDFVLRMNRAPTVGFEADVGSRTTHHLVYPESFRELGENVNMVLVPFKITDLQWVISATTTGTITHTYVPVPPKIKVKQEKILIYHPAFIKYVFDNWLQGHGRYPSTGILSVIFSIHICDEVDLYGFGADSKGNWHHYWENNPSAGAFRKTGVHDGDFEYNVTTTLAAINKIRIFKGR
The data set is described as follows: Sialyltransferase inhibition assay, ST3GALI (reverse-phase HPLC). It counts as biochemical. The note with it: measured at 500 μM; read-out: ST3GALI inhibition percentage. As to the method:
(§1) The enzymes analyzed in the present study included rat ST3Gal(I), rat ST3Gal(III), and human ST6Gal(I). Rat ST3Gal(I) and rat ST3Gal(Ill), were purchased from Calbiochem®, while human ST6Gal(I) was purchased from RnDSystems.com.
(§2) Sialyltransferase inhibition assay […] was performed as follows: Sialyltransferase activity was determined by measuring the level of the end product of sialylated saccharides with reverse-phase HPLC. The assay mixtures contained the following components: 200 mM MES buffer; 100 mM NaCl; 0.5 mM EDTA; 0.01% Triton X-100; 1.4 mU ST3GALI; 2.5 mM T-antigen; 1 mM CMP-Neu5Ac and different concentration of Sialyltransferase inhibitors to a total volume of 50 μl. The assay mixture was incubated at 37° C. for 15 mins and then quenched by heating up to 101′C for 10 mins. The sialylated product was resolved by reversed-phase HPLC. Kinetic data were obtained by fitting the initial rate data to the nonlinear regression equation.
(§3) Effects of the present compounds on the activity of sialyltransferase, including α2,3(N)-sialyltransferase ST3GALIII, α2,6(N)-sialyltransferases ST6GALI, and α2,3(O)-sialyltransferase ST3GALI, were determined in accordance with procedures described in the “Materials and Methods” section, and results are summarized in Table 1.

Data set [2] has as its target T2, α2,6(N)-sialyltransferases ST6GALI (Homo sapiens, UniProt P15907).
T2 construct: purchased RnDSystems.com (R&D Systems)
T2 sequence (P15907 1-406): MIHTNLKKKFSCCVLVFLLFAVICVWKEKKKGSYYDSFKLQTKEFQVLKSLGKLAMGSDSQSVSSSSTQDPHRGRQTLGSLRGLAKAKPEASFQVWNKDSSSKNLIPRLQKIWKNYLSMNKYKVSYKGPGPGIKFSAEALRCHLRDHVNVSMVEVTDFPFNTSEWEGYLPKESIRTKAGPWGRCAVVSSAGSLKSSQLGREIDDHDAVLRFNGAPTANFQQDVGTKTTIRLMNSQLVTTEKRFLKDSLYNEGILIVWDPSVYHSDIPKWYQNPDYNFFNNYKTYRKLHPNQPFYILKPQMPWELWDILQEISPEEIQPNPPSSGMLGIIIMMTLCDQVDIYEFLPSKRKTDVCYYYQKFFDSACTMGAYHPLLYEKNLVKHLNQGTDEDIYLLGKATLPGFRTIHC
The data set is described as follows: Sialyltransferase inhibition assay, ST6GALI (reverse-phase HPLC). The class given is biochemical. The note with it: for IC50: IC50 (μM) ST6GALI, α2,6-N-link. As to the method:
as §1
as §2, with “mU ST6GALI; 25 μM Galβ1-4GlcNAc;” for “mU ST3GALI; 2.5 mM T-antigen;”, “to 101° C.” for “to 101′C”, “product is” for “product was”, “resolved with” for “resolved by”
as §3

SMILES strings stand for the structures.

By inhibition is commonly meant the percentage by which the read-out fell short of the control. The term IC50 denotes the midpoint of a concentration-inhibition curve. Lower therefore signals inhibition by little substance. Consider `C[C@H](CCC(=O)OCCOCCOCCOCCN=[N+]=[N-])C1CC[C@H]2[C@@H]3CC[C@@H]4C[C@H](OC(=O)[C@H](CC(=O)O)NC(=O)c5ccc([N+](=O)[O-])cc5)CC[C@]4(C)[C@H]3CC[C@]12C` (stereo partly drawn) [Compound 9, (3S)-4-(((3R,5R,8R,9S,10S,13R,14S)-17-((R)-1-azido-13-oxo-3,6,9,12-tetraoxaheptadecan-16-yl)-10,13-dimethylhexadecahydro-1H-cyclopenta[a]phenanthren-3-yl)oxy)-3-(4-nitrobenzamido)-4-oxobutanoic acid], for which the inhibition at 500 µM in data set [1] stood at 0%. In addition, in data set [2], the “selectivity ratio ST3GALI/ST6GALI” value is recorded as over 88 and the IC50 was 5.7 ± 0.36 µM.

In general, melting point refers to the temperature of the solid-liquid transition. On to `C[C@H](CCC(=O)OCCOCCN=[N+]=[N-])C1CC[C@H]2[C@@H]3CC[C@@H]4C[C@H](OC(=O)[C@H](CC(=O)O)NC(=O)c5ccc([N+](=O)[O-])cc5)CC[C@]4(C)[C@H]3CC[C@]12C` (stereo partly drawn) [Compound 7, (3S)-4-(((3R,5R,8R,9S,10S,13R,14S)-17-((R)-5-(2-(2-azidoethoxy)ethoxy)-5-oxopentan-2-yl)-10,13-dimethylhexadecahydro-1H-cyclopenta[a]phenanthren-3-yl)oxy)-3-(4-nitrobenzamido)-4-oxobutanoic acid], for which the melting point was in the range of 57 to 58 °C. Moreover, in data set [1], the inhibition at 500 µM was found to be 0%. In data set [2], the “selectivity ratio ST3GALI/ST6GALI” value was over 74 and 6.72 ± 0.3 µM corresponded to half-maximal inhibition (IC50).

Consider `C[C@H](CCC(=O)OCCOCCOCCN=[N+]=[N-])C1CCC2C3CC[C@@H]4C[C@H](NC(=O)[C@H](CS)Nc5ccc([N+](=O)[O-])c6nonc56)CC[C@]4(C)C3CC[C@@]21C` (stereo partly shown), for which the melting point lay in the range of 68 to 69 °C.

Take `C[C@H](CCC(=O)O)C1CCC2C3CC[C@@H]4C[C@H](Nc5ccc([N+](=O)[O-])c6nonc56)CC[C@]4(C)C3CC[C@@]21C` (stereo partly shown): the melting point fell in the range of 137 to 139 °C.

Turning to `C[C@H](CCC(=O)OCCOCCOCCOCCOCCN=[N+]=[N-])C1CC[C@H]2[C@@H]3CC[C@@H]4C[C@H](OC(=O)[C@H](CC(=O)O)NC(=O)c5ccc([N+](=O)[O-])cc5)CC[C@]4(C)[C@H]3CC[C@]12C` (stereo partly drawn) [Compound 10, (3S)-4-(((3R,5R,8R,9S,10S,13R,14S)-17-((R)-1-azido-16-oxo-3,6,9,12,15-pentaoxaicosan-19-yl)-10,13-dimethylhexadecahydro-1H-cyclopenta[a]phenanthren-3-yl)oxy)-3-(4-nitrobenzamido)-4-oxobutanoic acid], the inhibition at 500 µM in data set [1] amounted to 0%. Moreover, in data set [2], the “selectivity ratio ST3GALI/ST6GALI” value is on record as over 67 and the IC50 is 7.45 ± 0.36 µM.

Molecule `C[C@H](CCC(=O)O)C1CCC2C3CC[C@@H]4C[C@H](Nc5nc6ccccc6nc5Cl)CC[C@]4(C)C3CC[C@@]21C` (stereo partly shown) had a melting point of 118 to 120 °C.

In the case of `C[C@H](CCC(=O)OCCOCCN=[N+]=[N-])C1CC[C@H]2[C@@H]3CC[C@@H]4C[C@H](OC(=O)[C@H](CC(=O)O)Nc5ccc([N+](=O)[O-])c6nonc56)CC[C@]4(C)[C@H]3CC[C@]12C` (stereo partly drawn) [Compound 2, (3S)-4-(((3R,5R,8R,9S,10S,13R,14S)-17-((R)-5-(2-(2-azidoethoxy)ethoxy)-5-oxopentan-2-yl)-10,13-dimethylhexadecahydro-1H-cyclopenta[a]phenanthren-3-yl)oxy)-3-((7-nitrobenzo[c][1,2,5]oxadiazol-4-yl)amino)-4-oxobutanoic acid], the melting point was 75 to 76 °C. Besides, the IC50 in data set [2] fell in the range of 3 to 7 µM.

In the case of `C[C@H](CCC(=O)O)C1CCC2C3CC[C@@H]4C[C@H](NS(=O)(=O)c5cccc6c(N(C)C)cccc56)CC[C@]4(C)C3CC[C@@]21C` (stereo partly shown), the melting point lay within 136 to 138 °C.
